From patent publication US10858357B2, “Water-soluble myosin 2 inhibitors for the treatment of neurological, neuropathic or psychiatric diseases” (PARIS SCIENCES ET LETTRES-QUARTIER LATIN, priority 2016, dated 2020)
Like-named read-outs stand apart in the source and are kept apart here.

Tests used:
[1] = tested on: zebrafish heart muscle; experiment: Zebrafish heart rate and amplitude of heart muscle contraction; type: in vivo, zebrafish (Danio rerio); conditions: 20 μM, within three hours, 6 dpf zebrafish
Experimental: For the fast escape response experiments, 6 dpf larvae were placed in 50 μl drops on a plastic plate. They were treated with 0, 2, 5, 10 or 20 μM of neurelaxin-A. To evoke C-start response, acoustic stimuli were applied according to the following protocol: 10 taps were carried out with 1 minute intervals every hour for 4 hours. The force of tapping was standardized. Images were recorded with Ximea Camera (MQ003MG-CM) at 500 fps for 2 s. Data were analyzed by Flote software version 2.1 and maximal angular velocity parameters of C-start reflex were quantified. For the experiments investigating the effect of the inhibitor on the heart muscle of zebrafish, 6 dpf larvae were embedded in 1% agarose and kept in E3 in the presence of 20 μM neurelaxin-A. Videos were taken by a camera at 15.1 fps before and after inhibitor treatment every hour for 3 hours.
Transgenic Tg(−8.0cldnb:lynEGFP)^zf106 (cldnb:gfp) (Haas, P. & Gilmour, D., Developmental Cell 10, 2006, pp 673-680) zebrafish (Danio rerio) were maintained in the animal facility of Eötvös Loránd University. For the experiments investigating the skeletal and heart muscle of zebrafish, 6 dpf embryos were used. […]
Heart beating and the amplitude of heart muscle contraction were monitored before and after the addition of 20 μM of neurelaxin-A to the zebrafish, imaging the same embryos every hour for three hours.

[2] = tested on: HeLa Kyoto H2B-mCherry eGFP-α-tubulin cells; experiment: Inhibition of cytokinesis / cell growth of HeLa cells; type: cell-based, human; conditions: 25 μM, 3rd day
Experimental: For cell growth assays, HeLa Kyoto H2B-mCherry eGFP-α-tubulin cells were grown on an eight-chambered Lab-Tek borosilicate cover glass system, with the initial cell concentration of 100,000 cells/ml. As soon as the cells attached to the surface, they were treated with 0, 2, 5, 10, 25 or 50 μM concentrations of neurelaxin-A. Cells were grown for three days in the presence of the indicated inhibitor concentrations and cell numbers were quantified each day. The final vol/vol % of DMSO in all experiments was 0.1. Data analysis was carried out by Fiji software. On the third day of the experiment, multinuclear cells were visualized by using a Zeiss LSM 710 with a Plan Apo 20×/0.8 objective.
Another important phenotypic effect of non-muscle myosin 2 inhibition is the blocking of cytokinesis and consequently, the increasing number of multinucleated cells and the relatively low total cell number in human cancer cell cultures (Straight et al. Science, 2003, 299 (5613), pp 1743-1747). Therefore, the ratio of multinuclear cells and total cell number of HeLa cells was measured in time at different concentrations of neurelaxin-A (FIGS. 3F and 3G).
Cells incubated in different concentrations of the inhibitors were counted on each day for three days. […] In parallel with this phenomenon, the ratio of multinuclear cells increased with increasing inhibitor concentration.

[3] = molecular target: T1, Dictyostelium discoideum myosin 2 motor domain (DdMD) (Dictyostelium discoideum, UniProt P08799); experiment: Steady state MgATPase, NADH-coupled assay, DdMD; type: biochemical; conditions: for IC50: 20° C.
T1 construct: Dictyostelium discoideum myosin 2 motor domain (DdMD)
T1 sequence (P08799 86-759 limits assumed): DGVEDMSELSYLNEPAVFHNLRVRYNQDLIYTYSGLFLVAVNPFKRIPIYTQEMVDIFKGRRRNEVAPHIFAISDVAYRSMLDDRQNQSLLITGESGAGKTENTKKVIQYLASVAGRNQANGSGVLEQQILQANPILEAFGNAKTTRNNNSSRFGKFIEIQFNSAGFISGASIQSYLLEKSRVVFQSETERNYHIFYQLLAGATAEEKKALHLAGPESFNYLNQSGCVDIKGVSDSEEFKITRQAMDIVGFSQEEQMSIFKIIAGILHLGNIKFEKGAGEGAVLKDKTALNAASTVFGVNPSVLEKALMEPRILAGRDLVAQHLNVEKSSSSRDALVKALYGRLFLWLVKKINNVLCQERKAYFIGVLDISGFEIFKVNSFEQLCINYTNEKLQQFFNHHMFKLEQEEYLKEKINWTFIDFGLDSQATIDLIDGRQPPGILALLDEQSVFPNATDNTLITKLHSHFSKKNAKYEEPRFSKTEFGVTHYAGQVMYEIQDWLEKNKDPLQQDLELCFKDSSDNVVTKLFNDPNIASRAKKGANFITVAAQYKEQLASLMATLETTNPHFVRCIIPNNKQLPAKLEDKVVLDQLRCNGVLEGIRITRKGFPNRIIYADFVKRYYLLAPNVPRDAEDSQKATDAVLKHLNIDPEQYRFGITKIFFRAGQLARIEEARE
Experimental: MgATPase activities of 500 nM (for basal ATPase) or 50 nM (for actin activated ATPase) SkS1 (rabbit skeletal S1 fragment) 23 and 1 μM (for basal ATPase) or 300 nM (for actin activated ATPase) DdMD were measured at increasing concentrations of neurelaxin-A in the absence or in the presence of 45 μM actin for SkS1 or 15 μM actin for DdMD. Measurements were carried out using a pyruvate kinase/lactate dehydrogenase coupled assay (NADH-coupled assay) (Kovacs M. et al., J. Biol. Chem. 2004, 279 (34), pp 35557-35563) at 25° C. or 20° C. in case of SkS1 or DdMD, respectively. Myosin and actin together with the indicated concentration of the inhibitor were pre-incubated for 5 minutes at room temperature and the measurements were initiated with 1 mM ATP. Data were corrected for background ATPase activity of actin. G-actin was prepared accordingly from rabbit skeletal muscle (Spudich, J. A. & Watt, S.; The Journal of Biological Chemistry 246, 1971, pp 4866-4871) and polymerized by 2 mM MgCl2 for 1 hour at room temperature. Measurements were performed in low salt buffer containing 5 mM HEPES, 2 mM MgCl2, 0.1 mM EGTA and 2 mM DTT at pH 7.2 or assay buffer containing 20 mM HEPES, 40 mM NaCl, 4 mM MgCl2 at pH 7.3 for basal ATPase activity measurements with DdMD.
The basal and actin activated ATPase activities of rabbit skeletal muscle myosin S1 (SkS1) and Dictyostelium discoideum myosin 2 motor domain (DdMD) were measured at increasing concentrations of neurelaxin-A (FIGS. 3A and 3B).

Cc1ccc2c(c1)C(=O)C1(O)CCN(c3ccc(N)cc3)C1=N2 (stereo not drawn) [Neurelaxin-A, 1-(4-aminophenyl)-3a-hydroxy-6-methyl-3,3a-dihydro-1H-pyrrolo[2,3-b]quinolin-4(2H)-one]
amplitude of heart muscle contraction [1]: dropped drastically
effect on cytokinesis / cell number [2]: completely inhibited cytokinesis
inhibition reached, actin activated ATPase of DdMD ([3]; actin activated): 80%
IC50 ([3]; actin activated, 300 nM DdMD, 15 μM actin, read-out: IC50 actin activated ATPase activity of DdMD): 6.7 ± 1.9 µM
inhibition reached, basal ATPase of DdMD ([3]; basal): 90%
IC50 ([3]; basal, 1 μM DdMD, read-out: IC50 basal ATPase of DdMD): 6.6 ± 2 µM
